Where a name gives a salt, the structure may show the parent alone.
What was measured:
laccase = system: T1, laccase; conditions: free enzyme; 50 mM acetate buffer pH 5; apparent
T1 construct: gene LCC2

[1] = system: T2, horseradish peroxidase (HRP); conditions: free enzyme; 50 mM phosphate buffer pH 7; co-substrate H2O2 (10 mM); apparent
T2 construct: gene PRXC1A

`CCn1c(=NN=c2sc3cc(S(=O)(=O)O)ccc3n2CC)sc2cc(S(=O)(=O)O)ccc21` [2,2′-azino-bis(3-ehylbenzothiazoline-6-sulfonic acid), diammonium salt] showed a Km (laccase) of 87 µM and a Km [1] of 1330 µM.

From publication PMC9699638, “Study of Membrane-Immobilized Oxidoreductases in Wastewater Treatment for Micropollutants Removal” (International Journal of Molecular Sciences, 2022)
